Measurements: US20250163057A1, “DCN-1 MODULATING COMPOUNDS AND METHODS OF USE THEREOF” (Cellarity, Inc., priority 2023, published 2025)
Like-named read-outs stand apart in the source and are kept apart here.

Molecular target: DCN1 (DCUND1) protein PONY domain (Homo sapiens (Human), UniProt Q96GG9)
Test: TR-FRET assay, DCN1 binding with FAM-labeled probe
Procedure: A TR-FRET assay was performed to evaluate the ability of the compounds to bind the DCN-1 protein.
The TR-FRET assay was designed following the Scott et al. protocol (Scott et al., Nat Chem Biol. 2017 August; 13(8): 850-857. Doi:10.1038/nchembio.2386). The recombinant form of the DCN1 (DCUND1) protein PONY domain was produced using an E. coli expression system at Viva Biotech (China). The DCN1 protein was biotinylated (EZ sulfo-NHS-LC-biotin; Thermofisher) for labeling with streptavidin terbium (Tb) cryptate in the reaction. The probe was changed to a non-covalent DCN1 inhibitor labeled with carboxyfluorescein (FAM; Zhou et al., Nat Commun. 2017; 8: 1150. Doi: 10.1038/s41467-017-01243-7). Buffer conditions were modified to enhance protein stability by exchanging Tween20 for TritonX and increasing NaCl to 200 mM. The compounds were screened against 5 nM DCN1 and 20 nM FAM-probe or 0.31 nM DCN1 and 900 nM total probe (100 nM FAM-labeled plus 800 nM unlabeled). The TR-FRET ratio between Tb-DCN1 and the FAM-labeled probe was measured in a 384-well opti-plate (Perkin Elmer) using a plate reader (BMG) at 1, 5, and 24 hrs after treatment with compound (final DMSO concentration of 0.1%).

[1] = 24 hr after treatment with compound, read-out: TR FRET IC50 24 hr
[2] = TR FRET IC50 1 hr (nM), 1 hr after treatment with compound
[3] = read-out: TR FRET IC50 1 hr, 1 hr after treatment with compound

Sequence of DCN1 (DCUND1) protein PONY domain (Q96GG9 60-248): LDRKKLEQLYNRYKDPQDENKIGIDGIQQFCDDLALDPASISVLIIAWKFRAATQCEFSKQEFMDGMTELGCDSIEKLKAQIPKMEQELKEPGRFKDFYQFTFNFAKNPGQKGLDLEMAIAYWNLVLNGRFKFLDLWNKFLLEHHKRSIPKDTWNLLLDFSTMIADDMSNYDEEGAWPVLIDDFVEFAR

SMILES: CCN1C(=O)[C@@H](NC(=O)c2cccc(C(F)(F)F)c2)[C@@H](c2ccc(F)cc2)c2c(C(=O)N3CCC[C@@H]3C#N)nn(-c3ccccc3)c21 (mixture of isomers) [Compound I-94]
- IC50 [1]: 200 to 1000 nM
- IC50 [2]: 200 to 1000 nM

SMILES: CCN1C(=O)[C@@H](NC(=O)c2cccc(C(F)(F)F)c2)[C@@H](c2ccc(F)cc2)c2c(C(=O)N3CC[C@H](C#N)C3)nn(-c3ccccc3)c21 (mixture of isomers) [Compound I-137]
- IC50 [1]: 200 to 1000 nM
- IC50 [2]: 200 to 1000 nM

SMILES: CCN1C(=O)[C@@H](NC(=O)c2cccc(C(F)(F)F)c2)[C@@H](c2ccc(F)cc2)c2c(C(=O)N[C@H](C)C#N)nn(-c3ccccc3)c21 (mixture of isomers) [Compound I-157]
- IC50 [1]: 200 to 1000 nM
- IC50 [2]: 1000 to 3000 nM

SMILES: C/C=C/S(=O)(=O)NCc1nn(-c2ccccc2)c2c1[C@H](c1ccc(F)cc1)[C@H](NC(=O)c1cccc(C(F)(F)F)c1)C(=O)N2CC (racemic) [Compound I-6]
- IC50 [1]: ≤ 200 nM
- IC50 [2]: 200 to 1000 nM

SMILES: CCN1C(=O)[C@@H](NC(=O)c2cccc(C(F)(F)F)c2)[C@@H](c2ccc(F)cc2)c2c([C@H](O)CNC#N)nn(-c3ccccc3)c21 (racemic) [Compound I-9, rac-N-((4R,5R)-3-(2-cyanamido-1-hydroxyethyl)-7-ethyl-4-(4-fluorophenyl)-6-oxo-1-phenyl-4,5,6,7-tetrahydro-1H-pyrazolo[3,4-b]pyridin-5-yl)-3-(trifluoromethyl)benzamide]
- IC50 [1]: 1000 to 3000 nM
- IC50 [2]: 200 to 1000 nM

SMILES: CCN1C(=O)[C@@H](NC(=O)c2cccc(C(F)(F)F)c2)[C@@H](c2ccc(F)cc2)c2c(NC(=O)C#CCN3CCOCC3)nn(-c3ccccc3)c21 (racemic) [Compound I-11, rac-N-((4R,5R)-7-ethyl-4-(4-fluorophenyl)-3-(4-morpholinobut-2-ynamido)-6-oxo-1-phenyl-4,5,6,7-tetrahydro-1H-pyrazolo[3,4-b]pyridine-5-yl)-3-(trifluoromethyl)benzamide]
- IC50 [1]: ≤ 200 nM
- IC50 [2]: 200 to 1000 nM

SMILES: C/C=C(\CN1CCOCC1)C(=O)NCc1nn(-c2ccccc2)c2c1[C@H](c1ccc(F)cc1)[C@H](NC(=O)c1cccc(C(F)(F)F)c1)C(=O)N2CC (racemic) [Compound I-14]
- IC50 [1]: ≤ 200 nM
- IC50 [3]: ≤ 200 nM

SMILES: CCN1C(=O)[C@@H](NC(=O)c2cccc(C(F)(F)F)c2)[C@@H](c2ccc(F)cc2)c2c(CNC(=O)/C=C/C(=O)NCCO)nn(-c3ccccc3)c21 (racemic) [Compound I-15, rac-N1-(((4R,5R)-7-ethyl-4-(4-fluorophenyl)-6-oxo-1-phenyl-5-(3-(trifluoromethyl)benzamido)-4,5,6,7-tetrahydro-1H-pyrazolo[3,4-b]pyridine-3-yl)methyl)-N4-(2-hydroxyethyl)fumaramide]
- IC50 [1]: 1000 to 3000 nM
- IC50 [2]: 1000 to 3000 nM

SMILES: C=C(CC(=O)OC)C(=O)NCc1nn(-c2ccccc2)c2c1[C@H](c1ccc(F)cc1)[C@H](NC(=O)c1cccc(C(F)(F)F)c1)C(=O)N2CC (racemic) [Compound I-17]
- IC50 [1]: 1000 to 3000 nM
- IC50 [2]: 1000 to 3000 nM

SMILES: C=C(Cc1nn(-c2ccccc2)c2c1[C@H](c1ccc(F)cc1)[C@H](NC(=O)c1cccc(C(F)(F)F)c1)C(=O)N2CC)C(=O)O (racemic) [Compound I-21, rac-2-(((4R,5R)-7-ethyl-4-(4-fluorophenyl)-6-oxo-1-phenyl-5-(3-(trifluoromethyl)benzamido)-4,5,6,7-tetrahydro-1H-pyrazolo[3,4-b]pyridin-3-yl)methyl)acrylic acid]
- IC50 [1]: 1000 to 3000 nM
- IC50 [2]: 1000 to 3000 nM

SMILES: CCN1C(=O)[C@@H](NC(=O)c2cccc(C(F)(F)F)c2)[C@@H](c2ccc(F)cc2)c2c(CNC(=O)C3(C#N)CCOCC3)nn(-c3ccccc3)c21 (racemic) [Compound I-22, rac-4-cyano-N-(((4R,5R)-7-ethyl-4-(4-fluorophenyl)-6-oxo-1-phenyl-5-(3-(trifluoromethyl)benzamido)-4,5,6,7-tetrahydro-1H-pyrazolo[3,4-b]pyridine-3-yl)methyl)tetrahydro-2H-pyran-4-carboxamide]
- IC50 [1]: 1000 to 3000 nM
- IC50 [2]: 1000 to 3000 nM

SMILES: CCN1C(=O)[C@@H](NC(=O)c2cccc(C(F)(F)F)c2)[C@@H](c2ccc(F)cc2)c2c(C/C=C/C(=O)NCCCO)nn(-c3ccccc3)c21 (racemic) [Compound I-24]
- IC50 [1]: 1000 to 3000 nM
- IC50 [2]: 1000 to 3000 nM

SMILES: CCN1C(=O)[C@@H](NC(=O)c2cccc(C(F)(F)F)c2)[C@@H](c2ccc(F)cc2)c2c(CNC(=O)C3=CCCN(C)C3)nn(-c3ccccc3)c21 (racemic) [Compound I-28]
- IC50 [1]: ≤ 200 nM
- IC50 [2]: 200 to 1000 nM

SMILES: CCN1C(=O)[C@@H](NC(=O)c2cccc(C(F)(F)F)c2)[C@@H](c2ccc(F)cc2)c2c(C(=O)NC(C)(C)C#N)nn(-c3ccccc3)c21 (racemic) [Compound I-31, rac-(4R,5R)—N-(2-cyanopropan-2-yl)-7-ethyl-4-(4-fluorophenyl)-6-oxo-1-phenyl-5-(3-(trifluoromethyl)benzamido)-4,5,6,7-tetrahydro-1H-pyrazolo[3,4-b]pyridine-3-carboxamide]
- IC50 [1]: 1000 to 3000 nM
- IC50 [2]: 1000 to 3000 nM

SMILES: CCN1C(=O)[C@@H](NC(=O)c2cccc(C(F)(F)F)c2)[C@@H](c2ccc(F)cc2)c2c(C/C=C/C(=O)NCCO)nn(-c3ccccc3)c21 (racemic) [Compound I-36]
- IC50 [1]: 1000 to 3000 nM
- IC50 [2]: 1000 to 3000 nM

SMILES: CCN1C(=O)[C@@H](NC(=O)c2cccc(C(F)(F)F)c2)[C@@H](c2ccc(F)cc2)c2c(/C=C3\CCC(=O)N3)nn(-c3ccccc3)c21 (racemic) [Compound I-39, rac-N-((4R,5R)-7-ethyl-4-(4-fluorophenyl)-6-oxo-3-((E)-(5-oxopyrrolidin-2-ylidene)methyl)-1-phenyl-4,5,6,7-tetrahydro-1H-pyrazolo[3,4-b]pyridin-5-yl)-3-(trifluoromethyl)benzamide]
- IC50 [1]: 1000 to 3000 nM
- IC50 [2]: 1000 to 3000 nM

SMILES: CCN1C(=O)[C@@H](NC(=O)c2cccc(C(F)(F)F)c2)[C@@H](c2ccc(F)cc2)c2c(C/C=C/C(=O)N(C)C)nn(-c3ccccc3)c21 (racemic) [Compound I-41]
- IC50 [1]: 1000 to 3000 nM
- IC50 [2]: 1000 to 3000 nM

SMILES: CCN1C(=O)[C@@H](NC(=O)c2cccc(C(F)(F)F)c2)[C@@H](c2ccc(F)cc2)c2c(C(C)(C)N(C)C#N)nn(-c3ccccc3)c21 (racemic) [Compound I-42, rac-N-((4R,5R)-7-ethyl-4-(4-fluorophenyl)-3-(2-(N-methylcyanamido)propan-2-yl)-6-oxo-1-phenyl-4,5,6,7-tetrahydro-1H-pyrazolo[3,4-b]pyridin-5-yl)-3-(trifluoromethyl)benzamide]
- IC50 [1]: 1000 to 3000 nM
- IC50 [2]: 1000 to 3000 nM

SMILES: CCN1C(=O)[C@@H](NC(=O)c2cccc(C(F)(F)F)c2)[C@@H](c2ccc(F)cc2)c2c(CC/C=C\C(=O)NC)nn(-c3ccccc3)c21 (racemic) [Compound I-43]
- IC50 [1]: 1000 to 3000 nM
- IC50 [2]: 200 to 1000 nM

SMILES: CCN1C(=O)[C@@H](NC(=O)c2cccc(C(F)(F)F)c2)[C@@H](c2ccc(F)cc2)c2c(CNC(=O)/C=C/C(=O)OC(C)(C)C)nn(-c3ccccc3)c21 (racemic) [Compound I-45, tert-butyl I-4-((((4S,5S)-7-ethyl-4-(4-fluorophenyl)-6-oxo-1-phenyl-5-(3-(trifluoromethyl)benzamido)-4,5,6,7-tetrahydro-1H-pyrazolo[3,4-b]pyridine-3-yl)methyl)amino)-4-oxobut-2-enoate]
- IC50 [1]: ≤ 200 nM
- IC50 [2]: 1000 to 3000 nM

SMILES: CCN1C(=O)[C@@H](NC(=O)c2cccc(C(F)(F)F)c2)[C@@H](c2ccc(F)cc2)c2c(C/C=C/C(N)=O)nn(-c3ccccc3)c21 (racemic) [Compound I-46, rac-N-((4R,5R)-3-((E)-4-amino-4-oxobut-2-en-1-yl)-7-ethyl-4-(4-fluorophenyl)-6-oxo-1-phenyl-4,5,6,7-tetrahydro-1H-pyrazolo[3,4-b]pyridin-5-yl)-3-(trifluoromethyl)benzamide]
- IC50 [1]: 1000 to 3000 nM
- IC50 [2]: 1000 to 3000 nM

SMILES: CCN1C(=O)[C@@H](NC(=O)c2cccc(C(F)(F)F)c2)[C@@H](c2ccc(F)cc2)c2c(CC/C=C/C(=O)N(C)C)nn(-c3ccccc3)c21 (racemic) [Compound I-48]
- IC50 [1]: ≤ 200 nM
- IC50 [3]: ≤ 200 nM

SMILES: CCN1C(=O)[C@@H](NC(=O)c2cccc(C(F)(F)F)c2)[C@@H](c2ccc(F)cc2)c2c(C3(N(C)C#N)CC3)nn(-c3ccccc3)c21 (racemic) [Compound I-52]
- IC50 [1]: 1000 to 3000 nM
- IC50 [2]: 1000 to 3000 nM

SMILES: C=C(C)S(=O)(=O)NCc1nn(-c2ccccc2)c2c1[C@H](c1ccc(F)cc1)[C@H](NC(=O)c1cccc(C(F)(F)F)c1)C(=O)N2CC (racemic) [Compound I-54, rac-N-((4R,5R)-7-ethyl-4-(4-fluorophenyl)-3-(((1-methylvinyl)sulfonamido)methyl)-6-oxo-1-phenyl-4,5,6,7-tetrahydro-1H-pyrazolo[3,4-b]pyridin-5-yl)-3-(trifluoromethyl)benzamide]
- IC50 [1]: 200 to 1000 nM
- IC50 [2]: 200 to 1000 nM

SMILES: CCN1C(=O)[C@@H](NC(=O)c2cccc(C(F)(F)F)c2)[C@@H](c2ccc(F)cc2)c2c(CNC(=O)/C=C/C(=O)O)nn(-c3ccccc3)c21 (racemic) [Compound I-59, rac-I-4-((((4R,5R)-7-ethyl-4-(4-fluorophenyl)-6-oxo-1-phenyl-5-(3-(trifluoromethyl)benzamido)-4,5,6,7-tetrahydro-1H-pyrazolo[3,4-b]pyridine-3-yl)methyl)amino)-4-oxobut-2-enoic acid]
- IC50 [1]: 1000 to 3000 nM
- IC50 [2]: 1000 to 3000 nM
